Assays:
[1] = tested on: myocardial ischemia-reperfusion injury in mice; test: Infarct size evaluation upon Evans Blue/TTC staining after myocardial I/R; type: in vivo, mouse (C57BL/6)
Procedure: (§1) The myocardial ischemia/reperfusion surgical protocol was applied as follows. Mice were anesthetized with 2% isoflurane inhalation until anesthesia was achieved. The animals' body temperature was maintained at 37 °C throughout the surgical procedure using a heating pad. A tracheal tube was placed via tracheal intubation and the respiration rate was set at 150 strokes/min with a tidal volume of 200 μL, using Minivent ventilator for mice (Model 845, Harvard Apparatus). A 1.2 cm incision was made over the left chest. After retraction of the pectoral major and minor muscles, the fourth intercostal space was exposed. […] The left anterior descending coronary artery (LAD) was then located, sutured, and ligated at a site 3-4 mm distal to the origin of the artery under the left atrium using a 6-0 silk suture. The heart was allowed to stabilize for 15 min and right after, ischemia was induced by tightening the suture against a small piece of polyethylene tube. At the end of the 30-minute ischemia period, the ligature was released for the induction of reperfusion, and then the manual evacuation of air and closure of muscle and skin were performed. The mouse was then monitored during the recovery period, which was generally completed within 3 to 5 minutes. Sustain-released buprenorphine (BupSR, 0.5 mg/kg body weight) was provided by subcutaneous injection. Mice were then left to recover until the end of the reperfusion (2 hours, 12 hours, 24 hours, or 4 weeks). The sham group underwent the same surgical procedure except that the LAD was not occluded.
Double staining of the heart with Evans Blue dye and Triphenyl-Tetrazolium Chloride (TTC) solution was employed for infarct size measurements. Mice were anesthetized upon 3% isoflurane inhalation. The thorax was cut and opened, and hearts were gently excised. Then, the aorta was cannulated and perfused with 5 mL of normal saline. The suture was re-tightened and Evans Blue solution (2.5% in WFI) was slowly infused through the aorta, to differentiate the ischemic part of the myocardium from the non-occluded, normally perfused area. The hearts were sliced into 1-2 mm sections immediately following. The heart slices were incubated with TTC solution (1% in PBS, pH=7.4) at 37 °C for 20 min. In this way, the necrotic area is delimited as a white area, while the viable tissue is stained red. […] The overall size of each slice (All/A), the area-at-risk (R), and the infarct area (I) were determined in a blinded manner for each slice using ImageJ software, and the percentages of Area at Risk (R/A) % and I/R % were calculated. […]
Administration of these two compounds was performed 5 minutes before the reopening of the coronary artery and infarct size was assessed upon 30 minutes of ischemia followed by 24 hours of reperfusion therapy.

[2] = tested on: reactive oxygen species in myocardium; test: DHE staining of myocardium (superoxide detection, oxidative stress) after I/R; type: in vivo, mouse (C57BL/6); details: 2 h reperfusion; apocynin 5 mg/kg/12 h or GLX351322 3.8 mg/kg/12 h, intraperitoneal, at early reperfusion
Procedure: as §1, with “Sustain-released buprenorphine (BupSR, 0.5 mg/kg body weight) was provided by subcutaneous injection. Mice were then left to recover until the end of the reperfusion (2 hours, 12 hours, 24 hours, or 4 weeks). The sham group underwent the same surgical procedure except that the LAD was not occluded.” left out
Live myocardium was isolated from mice at the time of euthanasia and stained with 20 μM dihydroethidium (DHE) for 30 min at room temperature. […] Individual nuclei were measured within each visual field using ImageJ software, and visual fields were averaged to measure mean fluorescence intensity for each mouse.
In order to unravel the mechanisms of KLF5-mediated cardiotoxicity, oxidative stress levels were evaluated at early reperfusion. […] Given the fact that inflammation and diapedesis of immune cells are important hallmarks of the post-ischemia-reperfusion response, the mRNA levels of IL-1α, IL-1β, IL-6, IL-10, and TNFα in the ischemic myocardium upon ML264 treatment were evaluated at 2 hours of reperfusion (FIGS. 51-5M) and 24 hours of reperfusion (FIGS. 5N-5Q). […]

NOX4 = details: cited from earlier work
KLF5 [3] = details: colorectal cancer cell lines; Bialkowska 2011; cited from earlier work
KLF5 promoter = details: colorectal cancer cell lines; Bialkowska 2011; cited from earlier work
KLF5 [4] = details: cited from earlier work
[5] = apocynin 5 mg/kg/12 h or GLX351322 3.8 mg/kg/12 h, intraperitoneal, at early reperfusion, vs vehicle

COc1cc(C(C)=O)ccc1O [apocynin, acetovanillone]
infarct size [1, 5]: significant reduction | oxidative stress (DHE staining) [2]: significant suppression

CCOC(=O)c1c(NC(=O)CN2CCN(C(=O)c3ccco3)CC2)sc2c1CCC2 [GLX-351322]
infarct size [1, 5]: significant reduction | oxidative stress (DHE staining) [2]: significant suppression | hydrogen peroxide production from NOX4-overexpressing cells (NOX4): inhibits

CC(C)(C)c1cc(C=C(C#N)C#N)cc(C(C)(C)C)c1O [AG17]
KLF5 protein level (KLF5 [3]): reduce | KLF5 promoter activity (KLF5 promoter): reduce

CC(C)(C)c1ccc(S(=O)(=O)NCc2ccc(C(=O)Nc3cccnc3)cc2)cc1 [STF-31]
infarct size ([1]; GLUT inhibitors 5 min before reopening of coronary artery, 30 min ischemia, 24 h reperfusion): not by STF-31 treatment

CC(C)(C)c1cc(/C=C(\C#N)C(N)=S)cc(C(C)(C)C)c1O [AG879]
inhibition of KLF5 (KLF5 [4]): inhibit
